How the values were obtained:
[1] = target: T1, Protein cereblon/Focal adhesion kinase 1 (Homo sapiens) (UniProt Q05397+Q96SW2); experiment: Protac activity at CRBN/FAK in human PA-TU-8988T cells assessed as induction of FAK degradation at 10 nM incubated for 4 hrs by immunoblot assay relative to control; assay type: cell-based
[2] = target: T1, Protein cereblon/Focal adhesion kinase 1 (Homo sapiens); experiment: Protac activity at CRBN/FAK in human PA-TU-8988T cells assessed as induction of FAK degradation at 100 nM incubated for 4 hrs by immunoblot assay relative to control; assay type: cell-based

T1 sequence (Q05397 2-1052 limits assumed): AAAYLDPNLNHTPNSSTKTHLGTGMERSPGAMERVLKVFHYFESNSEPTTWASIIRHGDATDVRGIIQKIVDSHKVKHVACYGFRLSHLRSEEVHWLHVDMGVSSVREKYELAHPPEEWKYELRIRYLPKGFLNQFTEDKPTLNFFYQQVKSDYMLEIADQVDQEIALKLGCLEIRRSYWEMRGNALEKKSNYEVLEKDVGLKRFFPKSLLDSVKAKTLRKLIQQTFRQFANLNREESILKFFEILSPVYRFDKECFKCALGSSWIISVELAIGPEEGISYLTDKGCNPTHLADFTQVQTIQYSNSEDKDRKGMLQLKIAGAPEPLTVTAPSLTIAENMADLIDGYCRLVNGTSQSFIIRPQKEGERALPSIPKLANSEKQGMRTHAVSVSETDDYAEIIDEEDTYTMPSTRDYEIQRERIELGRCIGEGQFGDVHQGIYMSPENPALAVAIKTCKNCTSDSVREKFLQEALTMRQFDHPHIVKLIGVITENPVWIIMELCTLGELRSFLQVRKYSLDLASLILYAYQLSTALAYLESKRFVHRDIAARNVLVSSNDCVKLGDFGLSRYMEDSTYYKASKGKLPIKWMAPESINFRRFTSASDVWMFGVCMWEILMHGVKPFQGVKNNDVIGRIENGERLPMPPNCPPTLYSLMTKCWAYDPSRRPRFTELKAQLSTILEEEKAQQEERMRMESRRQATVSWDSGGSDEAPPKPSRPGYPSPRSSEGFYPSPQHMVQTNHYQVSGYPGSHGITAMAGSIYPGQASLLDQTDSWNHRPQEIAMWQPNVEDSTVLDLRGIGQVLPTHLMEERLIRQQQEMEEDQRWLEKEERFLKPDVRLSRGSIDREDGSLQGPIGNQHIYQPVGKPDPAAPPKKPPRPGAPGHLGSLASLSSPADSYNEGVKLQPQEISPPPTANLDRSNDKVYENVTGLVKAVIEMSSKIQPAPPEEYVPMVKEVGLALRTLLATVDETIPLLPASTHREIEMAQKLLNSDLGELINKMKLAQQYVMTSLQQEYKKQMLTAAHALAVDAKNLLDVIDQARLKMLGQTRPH
T1 sequence (Q96SW2 whole entry partner): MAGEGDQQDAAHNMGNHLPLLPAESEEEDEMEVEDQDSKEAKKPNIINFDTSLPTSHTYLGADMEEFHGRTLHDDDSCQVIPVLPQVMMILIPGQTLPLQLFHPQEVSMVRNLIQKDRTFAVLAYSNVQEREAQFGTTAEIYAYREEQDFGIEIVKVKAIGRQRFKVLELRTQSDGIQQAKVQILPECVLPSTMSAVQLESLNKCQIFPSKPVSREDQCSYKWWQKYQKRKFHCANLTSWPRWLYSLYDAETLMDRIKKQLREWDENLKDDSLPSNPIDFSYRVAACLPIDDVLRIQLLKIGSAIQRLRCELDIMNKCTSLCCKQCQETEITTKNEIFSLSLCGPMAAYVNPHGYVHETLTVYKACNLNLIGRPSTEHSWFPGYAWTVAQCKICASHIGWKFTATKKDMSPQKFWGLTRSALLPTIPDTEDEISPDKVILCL

Row | SMILES | Activity [1] | Activity [2]
1 | CS(=O)(=O)c1cccc(CNc2nc(Nc3ccc(C(=O)NCCCCCCCCNC(=O)COc4cccc5c4C(=O)N(C4CCC(=O)NC4=O)C5=O)cc3)ncc2C(F)(F)F)c1 (configuration not stated) | 25 to 49% | 85 to 100%
2 | CNC(=O)c1ccccc1Nc1cc(Nc2ccc(N3CCN(CCOCCOCCNC(=O)CNc4cccc5c4C(=O)N(C4CCC(=O)NC4=O)C5=O)CC3)cc2OC)ncc1C(F)(F)F (configuration not stated) | 70 to 84% | 85 to 100%

Next, values leading:

Row | Activity [1] | Activity [2] | SMILES
3 | 85 to 100% | 85 to 100% | CNC(=O)c1ccccc1Nc1cc(Nc2ccc(N3CCN(CCCCCCCCNc4cccc5c4C(=O)N(C4CCC(=O)NC4=O)C5=O)CC3)cc2OC)ncc1C(F)(F)F (configuration not stated)
4 | 85 to 100% | 85 to 100% | CNC(=O)c1ccccc1Nc1cc(Nc2ccc(N3CCN(CCCCCCNC(=O)COc4cccc5c4C(=O)N(C4CCC(=O)NC4=O)C5=O)CC3)cc2OC)ncc1C(F)(F)F (configuration not stated)
5 | 85 to 100% | 85 to 100% | CNC(=O)c1ccccc1Nc1cc(Nc2ccc(N3CCN(CCCCCCCCNC(=O)CNc4cccc5c4C(=O)N(C4CCC(=O)NC4=O)C5=O)CC3)cc2OC)ncc1C(F)(F)F (configuration not stated)
6 | 85 to 100% | 85 to 100% | CNC(=O)c1ccccc1Nc1cc(Nc2cc(C)c(C3CCN(CCCCCCNC(=O)COc4cccc5c4C(=O)N(C4CCC(=O)NC4=O)C5=O)CC3)cc2OC(C)C)ncc1C(F)(F)F (configuration not stated)
